In PubChem BioAssay AID179 (DTP/NCI, 2004):
Active and inactive are the calls of the source.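 Rule for the calls: active = compounds giving half or more protection of infected cells from virus-caused growth loss, again on retest; inactive = the rest.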

Tested on: CEM cells HIV-1 protection, formazan growth assay
Experiment: NCI AIDS Antiviral Assay
Details: for IC50: measured here: growth of uninfected CEM cells
Summary of the method: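 CEM (human) cells, HIV-1 infected vs uninfected, 5-point dosing, formazan growth read-out. Retest threshold 50% protection.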

Row | Structure (SMILES) | EC50 [µM] | IC50 [µM] | outcome
1 | CCCCCCCCCCOCC(COCCOCC(COCCCCCCCCCC)OCCCS(=O)(=O)O)OCCCS(=O)(=O)O (centres undefined) | > 204 | 107 | –
2 | CC1=NN2C(=N)/C(=C/c3ccco3)C(=O)N=C2S1 | > 200 | > 200 | –
3 | CN=Cc1ccccc1O.CN=Cc1ccccc1O.[Cu+2] | > 200 | 11.2 | –
4 | N#CCCN(CCC#N)c1ccc(/C=C2/N=C(COc3ccccc3)N(c3ccc(Cl)cc3)C2=O)cc1 | > 37.2 | > 37.2 | –
5 | CCOC(=O)C1(CC)OC12CCCCC2 (centres undefined) | > 200 | > 200 | –
6 | C=CCc1cccc2cc(C(=O)Nc3nc(C45CC6CC(CC(C6)C4)C5)cs3)c(=O)oc12 | > 100 | > 100 | –
7 | O=c1[nH]c2nc3ccccc3c(=O)n2/c1=C/c1ccc(O)cc1 | > 200 | 52.5 | –
8 | Cc1nc2c3c(Cc4ccccc4)c(C)[nH]c3ncn2n1 | > 200 | 117 | –
9 | CCOC(=O)C1=C2c3cccnc3-c3ccccc3N2C(C(=O)OCC)C1C(=O)OCC (centres undefined) | – | – | inactive
10 | Cc1cc(C(=O)O)c(C)cc1SSc1cc(C)c(C(=O)O)cc1C | > 105 | 75.9 | –
11 | CCOC(=O)CC/C(C)=N\n1c(Cc2ccc(Cl)cc2)n[nH]c1=O | – | – | inactive
12 | CCCCCCc1cc(C(=O)Nc2ccc(Cl)cc2)nc(=S)[nH]1 | > 708 | 479 | –
13 | Cc1ccc(/C(O)=C/c2nc3ccccc3s/c2=N/CS(=O)(=O)c2ccc(C)cc2)cc1 | > 200 | > 200 | –
14 | CC(=N\N)/C(C)=N/N=C(C)/C(C)=N/N=C(C)/C(C)=N/N | > 200 | 178 | –
15 | O=C1NN(c2ccccc2)C(=O)C2C3c4ccccc4C(c4ccccc43)C12 (centres undefined) | > 200 | > 200 | –
16 | Cc1ccc(/C=C2\NC(=S)N(CN3CCOCC3)C2=O)cc1 | > 200 | 45.7 | –
17 | NC(c1ccccc1)(C(F)(F)F)P1(=O)OC(=O)c2ccccc2O1 (centres undefined) | > 200 | > 200 | –
18 | Cc1ncc([N+](=O)[O-])n1CCNC(=O)CCCCn1ccnc1[N+](=O)[O-] | > 200 | > 200 | –
19 | CS(=O)(=O)OCCN1CCN(C(=O)c2cccc3c(Nc4ccc(S(=O)(=O)N=C(N)N)cc4)c4ccccc4nc23)CC1 | > 35.5 | > 35.5 | –
20 | O=C1NS(=O)(=O)c2ccccc21.[Cu+2] | > 1150 | 58.9 | –
21 | O=C1N=NC(=O)N1c1cc(C(F)(F)F)cc(C(F)(F)F)c1 | > 200 | 2.88 | –

Row | Structure (SMILES) | EC50 [µM] | IC50 [µM] | outcome
22 | O=C1c2cccc([N+](=O)[O-])c2C(=O)N1CC[P+](c1ccccc1)(c1ccccc1)c1ccccc1 | > 200 | > 200 | –
23 | COc1cc(C(=O)N(C(=S)OCc2ccccn2)c2ccccc2)cc(OC)c1OC | > 200 | 74.1 | –
24 | O=C(NNC(=S)Nc1ccc(Cl)cc1)c1cc(-c2ccccc2)nc2ccccc12 | > 200 | 8.51 | –
25 | CNC(=O)OCc1c(COC(=O)NC)c2n(c1C)CSC2 | > 200 | 8.13 | –
26 | O=C1c2ccccc2-c2cc(S)c([N+](=O)[O-])cc21 | > 200 | 145 | –
27 | O=C1/C(=C\c2cccc(Oc3ccccc3)c2)S(=O)(=O)C(c2ccccc2)N1c1cccc([N+](=O)[O-])c1 (centres undefined) | > 200 | 9.55 | –
28 | CC(C)C(=O)CC(c1ccc(Br)cc1)N1N=C(C(C)C)CC1c1ccc(Br)cc1 (centres undefined) | > 10 | > 10 | –
29 | CCOP(=O)(OCC)/C(C#N)=C\c1cccc2ccccc12 | > 83.2 | > 83.2 | –
30 | CN=C(NC)c1ccc(NC(=O)c2ccc(C(=O)Nc3ccc(C(=NC)NC)c(C)c3)cc2)cc1C | – | – | inactive
31 | OCC(O)COc1ccc(Br)cc1 (centres undefined) | > 1000 | 646 | –
32 | CN1C(=O)C(O)(Cc2nccc3ccccc23)c2ccccc21 (centres undefined) | > 200 | 36.3 | –
33 | COc1cc(/C=C(\OC(C)=O)c2ccc3c(c2)OCO3)cc(OC)c1OC | > 126 | 52.5 | –
34 | CNCC(=O)NC(CO)C(=O)NC1C(C(N)=O)OC(n2ccc(N)nc2=O)C(O)C1O (centres undefined) | – | – | inactive
35 | CCOC(=O)/C(=C\n1c(=S)[nH]c2cc(C)ccc21)C(=O)c1ccccc1 | > 100 | > 100 | –
36 | O=c1[nH]c2nccn2c(Cl)c1Br | > 200 | 33.9 | –
37 | COc1ccc2c(c1)[n+]([O-])c(-c1ccc([N+](=O)[O-])cc1)c(N)[n+]2[O-] | – | – | inactive
38 | CC1c2c(cc(=O)[nH]c2O)C(=O)N1Cc1ccccc1 (centres undefined) | > 347 | 302 | –
39 | CC(C)(C)[C@H]1CCC2(OCCO2)[C@](O)(CCCO)C1 | > 200 | > 200 | –
40 | S=C1CSc2c(ccc3ccccc23)N1 | > 200 | 141 | –
41 | Cc1oc2c(C)c3oc(=O)cc(C)c3cc2c1CCl | > 20 | 2.95 | –
42 | Cc1ccc2oc(=O)ccc2c1 | > 427 | 174 | –
